Reference: publication PMC7796460, “Relation of Metal-Binding Property and Selective Toxicity of 8-Hydroxyquinoline Derived Mannich Bases Targeting Multidrug Resistant Cancer Cells” (Cancers, 2021)
Like-named read-outs stand apart in the source and are kept apart here.

Legend:
MES-SA cells [1] = experiment: ROS determination with DCFDA, MES-SA; format: cell-based, human; conditions: 2 h
Method: (§1) Measurements were performed as described earlier. Briefly, cells were harvested, washed with PBS, and incubated with 10 µM DCFDA in a water bath shaker at 37 °C for 30 min in a density of 3 × 10^6 cells/mL. After washing with PBS, cells were seeded to 96-well plates in PBS in a density of 2 × 10^4 cells/well. Following the measurement of the basal fluorescence, test compounds were added in different concentrations and the fluorescence of the samples was followed at time intervals of 10 min. DCFDA solution in buffer was used as a cell free control to test for interaction of the test compounds with DCFDA. Data were analyzed as fold change of fluorescence compared to basal levels and untreated cells. Significance was calculated using unpaired t-tests; results are given as *: p ≤ 0.05, **: p ≤ 0.01, ***: p ≤ 0.001, ****: p ≤ 0.0001.
(§2) Table S3: Characterization of intracellular ROS production with the DCFDA assay for P -gp negative MES-SA and P-gp positive MES-SA/Dx5 cells. Fold changes in fluorescence are shown after a 2 h with the investigated 8 -hydroxyquinoline ligands. Data S-refer to Figure 7 and allow […]
(§3) concentration range from 6.25µ M to 50µ M. Fold change of fluorescence obtained in the presence of 5 mM NAC is given in brackets.

MES-SA/Dx5 cells [2] = experiment: MTT viability assay, MES-SA/Dx5; format: cell-based, human; conditions: for SR: Table S1, IC50 Pgp negative divided by Pgp positive cells; for SR_TQ: Table S1, presence of 1 µM TQ
Text: (§4) MDCK II canine kidney cells, A431 epidermoid carcinoma cells, the human uterine sarcoma cell lines MES-SA and the doxorubicin selected MES-SA-Dx5 were obtained from ATCC (MDCK II: No. CRL-2936™, A431: No. CRL-1555™, MES-SA: No. CRL-1976™, MES-SA/Dx5: No. CRL-1977™). ABCB1 was expressed in A431 and MES-SA cells using lentiviral transduction. The human cervix carcinoma cell line KB-3-1 and the vinblastine selected KB-v1were kind gifts from Dr. Michael M. Gottesman, National Institutes of Health. The phenotype of the resistant cells was verified using cytotoxicity assays. MDCK-B1 and MDCK-MM were established by the Sleeping Beauty transposon-based gene delivery system. OVCAR-8 and NCI-ADRres cells (obtained from the Division of Cancer Treatment and Diagnosis (DCTD) Tumor Repository (National Cancer Institute, Frederick, MD, USA)) were cultivated in RPMI-1640 (Sigma Aldrich, Budapest, Hungary), and other cell lines were cultivated in Dulbecco’s Modified Eagle Medium (DMEM, Sigma Aldrich, Budapest, Hungary), supplemented with 10% fetal bovine serum, 5 mM glutamine, and 50 unit/mL penicillin and streptomycin (Life Technologies, Carlsbad, CA, USA). All cell lines were cultivated at 37 °C, 5% CO2.
(§5) MTT viability assays were performed as described earlier with minor modifications. Briefly, cells were seeded into 96-well tissue culture plates (Sarstedt, Newton, NC, USA/Orange, Braine-l’Alleud, Belgium) at a density of 5000 cells/well and allowed to attach overnight. Test compounds were added to achieve the required final concentration in a final volume of 100 µL per well. After an incubation period of 72 h, the supernatant was removed and fresh medium containing the MTT reagent (0.083 mg/mL) was added. Incubation with MTT at 37 °C was terminated after 1 h by removing the supernatant and lysing the cells with 100 µL DMSO per well. Viability of the cells was measured spectrophotometrically based on the absorbance values at 540 nm using either a Perkin Elmer Victor X3 or an EnSpire microplate reader. Data were background corrected by subtraction of the signal obtained from unstained cell lysates and normalized to untreated cells. Curves were fitted by Prism software (GraphPad Software Inc., San Diego, CA, USA) using the sigmoidal dose-response model (comparing variable and fixed slopes). […] Significance was calculated using unpaired t-tests; results are given as *: p ≤ 0.05, **: p ≤ 0.01, ***: p ≤ 0.001, ****: p ≤ 0.0001.

MES-SA/Dx5 cells [3] = experiment: ROS determination with DCFDA, MES-SA/Dx5; format: cell-based, human; conditions: 2 h
Method: as §1, §2, §3

[4] = pKa by UV-visible spectrophotometric titrations; format: physicochemical; conditions: T = 25 °C, I = 0.2 M (KCl)
MES-SA cells [5] = experiment: MTT viability assay, MES-SA; format: cell-based, human
Text: as §4, §5

[6] = Table S1, calculated as ligand equivalents, absence of TQ, read-out: IC50 Dx5
[7] = Table S1, calculated as ligand equivalents, presence of 1 µM TQ, read-out: IC50 Dx5_TQ
[8] = Table S1, calculated as ligand equivalents, presence of 1 µM TQ, read-out: IC50 MES-SA_TQ
[9] = Table S1, ligands and in situ preformed complexes, calculated as ligand equivalents, absence of TQ, read-out: IC50 MES-SA

## 7-(2-fluorobenzyl-aminomethyl)-8-hydroxyquinoline hydrochloride [De-Cl-Q-4]
MES-SA cells [1]; 6.25 µM
  Fold change in fluorescence (DCFDA): 1.431± 0.39
MES-SA cells [1]; 6.25 µM, presence of 5 mM NAC (brackets)
  Fold change in fluorescence (DCFDA): 1.364± 0.44
MES-SA cells [1]; 12.5 µM
  Fold change in fluorescence (DCFDA): 1.118± 0.14
MES-SA cells [1]; 12.5 µM, presence of 5 mM NAC (brackets)
  Fold change in fluorescence (DCFDA): 1.345± 0.27
MES-SA cells [1]; 25 µM
  Fold change in fluorescence (DCFDA): 1.260± 0.20
MES-SA cells [1]; 25 µM, presence of 5 mM NAC (brackets)
  Fold change in fluorescence (DCFDA): 1.111± 0.22
MES-SA cells [1]; 50 µM
  Fold change in fluorescence (DCFDA): 1.328± 0.29
MES-SA cells [1]; 50 µM, presence of 5 mM NAC (brackets)
  Fold change in fluorescence (DCFDA): 1.259± 0.29
MES-SA/Dx5 cells [2]; Table 2, value in brackets (Tariquidar as in Table 1)
  SR MES-SA/Dx5 (Table 2): 1.72
MES-SA/Dx5 cells [2]; Table 2, value outside brackets
  SR MES-SA/Dx5 (Table 2): 5.22
MES-SA/Dx5 cells [2]; Table 2, value outside brackets, read-out: MES-SA/Dx5 (toxicity, Table 2)
  IC50: 0.34 ± 0.01 µM
MES-SA/Dx5 cells [3]; MES-SA/Dx5, 6.25 µM
  Fold change in fluorescence (DCFDA): 1.282± 0.35
MES-SA/Dx5 cells [3]; MES-SA/Dx5, 6.25 µM, presence of 5 mM NAC (brackets)
  Fold change in fluorescence (DCFDA): 1.137± 0.30
MES-SA/Dx5 cells [3]; MES-SA/Dx5, 12.5 µM
  Fold change in fluorescence (DCFDA): 1.177± 0.22
MES-SA/Dx5 cells [3]; MES-SA/Dx5, 12.5 µM, presence of 5 mM NAC (brackets)
  Fold change in fluorescence (DCFDA): 1.088± 0.23
MES-SA/Dx5 cells [3]; MES-SA/Dx5, 25 µM
  Fold change in fluorescence (DCFDA): 1.344± 0.27
MES-SA/Dx5 cells [3]; MES-SA/Dx5, 25 µM, presence of 5 mM NAC (brackets)
  Fold change in fluorescence (DCFDA): 1.282± 0.28
MES-SA/Dx5 cells [3]; MES-SA/Dx5, 50 µM
  Fold change in fluorescence (DCFDA): 1.373± 0.35
MES-SA/Dx5 cells [3]; MES-SA/Dx5, 50 µM, presence of 5 mM NAC (brackets)
  Fold change in fluorescence (DCFDA): 1.265± 0.27
[4]
  pKa (NquinoliniumH+): 3.21 ± 0.04
  pKa (OH): 6.42 ± 0.04
[4]; group named in the cell (NmorpholiniumH+, NpiperidiniumH+, NbenzylamineH2+)
  pKa (additional): 10.69 ± 0.04 (NbenzylamineH2^+)
MES-SA cells [5]; Table 2, value outside brackets, read-out: MES-SA (toxicity, Table 2)
  IC50: 1.78 ± 0.08 µM

## [Cu+2].[O-]c1cccc2cccnc12.[O-]c1cccc2cccnc12 [1/2 [Cu(Q-1)2]]
MES-SA/Dx5 cells [2]; absence of TQ
  SR: 1.86
MES-SA/Dx5 cells [2]; [6]
  IC50: 2.03 ± 0.46 µM
MES-SA/Dx5 cells [2]; [7]
  IC50: 2.61 ± 0.44 µM
MES-SA/Dx5 cells [2]
  SR_TQ: 1.58
MES-SA cells [5]; [8]
  IC50: 4.14 ± 1.2 µM
MES-SA cells [5]; [9]
  IC50: 3.77 ± 0.66 µM

## [Cu+2].[O-]c1c(CN2CCOCC2)ccc2cccnc12.[O-]c1c(CN2CCOCC2)ccc2cccnc12 [1/2 [Cu(Q-2)2]]
MES-SA/Dx5 cells [2]; absence of TQ
  SR: 1.29
MES-SA/Dx5 cells [2]; [6]
  IC50: 1.76 ± 0.56 µM
MES-SA/Dx5 cells [2]; [7]
  IC50: 1.92 ± 0.45 µM
MES-SA/Dx5 cells [2]
  SR_TQ: 1.05
MES-SA cells [5]; [8]
  IC50: 2.02 ± 0.65 µM
MES-SA cells [5]; [9]
  IC50: 2.27 ± 0.67 µM

## [Cu+2].[O-]c1c(CN2CCCCC2)ccc2cccnc12.[O-]c1c(CN2CCCCC2)ccc2cccnc12 [1/2 [Cu(Q-3)2]]
MES-SA/Dx5 cells [2]; absence of TQ
  SR: 2.52
MES-SA/Dx5 cells [2]; [6]
  IC50: 0.76 ± 0.26 µM
MES-SA/Dx5 cells [2]; [7]
  IC50: 2.04 ± 0.36 µM
MES-SA/Dx5 cells [2]
  SR_TQ: 1.04
MES-SA cells [5]; [8]
  IC50: 2.13 ± 0.65 µM
MES-SA cells [5]; [9]
  IC50: 1.91 ± 0.59 µM

## [Cu+2].[O-]c1c(CNCc2ccccc2F)cc(Cl)c2cccnc12.[O-]c1c(CNCc2ccccc2F)cc(Cl)c2cccnc12 [1/2 [Cu(Q-4)2]]
MES-SA/Dx5 cells [2]; absence of TQ
  SR: 5.03
MES-SA/Dx5 cells [2]; [6]
  IC50: 0.29 ± 0.039 µM
MES-SA/Dx5 cells [2]; [7]
  IC50: 1.22 ± 0.025 µM
MES-SA/Dx5 cells [2]
  SR_TQ: 1.11
MES-SA cells [5]; [8]
  IC50: 1.36 ± 0.26 µM
MES-SA cells [5]; [9]
  IC50: 1.46 ± 0.16 µM

## [Fe+3].[O-]c1cccc2cccnc12.[O-]c1cccc2cccnc12.[O-]c1cccc2cccnc12 [1/3 [Fe(Q-1)3]]
MES-SA/Dx5 cells [2]; absence of TQ
  SR: 1.13
MES-SA/Dx5 cells [2]; [6]
  IC50: 2.92 ± 0.8 µM
MES-SA/Dx5 cells [2]; [7]
  IC50: 2.96 ± 0.64 µM
MES-SA/Dx5 cells [2]
  SR_TQ: 1.04
MES-SA cells [5]; [8]
  IC50: 3.07 ± 0.36 µM
MES-SA cells [5]; [9]
  IC50: 3.31 ± 0.52 µM

## [Fe+3].[O-]c1c(CN2CCOCC2)ccc2cccnc12.[O-]c1c(CN2CCOCC2)ccc2cccnc12.[O-]c1c(CN2CCOCC2)ccc2cccnc12 [1/3 [Fe(Q-2)3]]
MES-SA/Dx5 cells [2]; absence of TQ
  SR: 1.24
MES-SA/Dx5 cells [2]; [6]
  IC50: 3.13 ± 0.84 µM
MES-SA/Dx5 cells [2]; [7]
  IC50: 4.23 ± 0.52 µM
MES-SA/Dx5 cells [2]
  SR_TQ: 1.03
MES-SA cells [5]; [8]
  IC50: 4.35 ± 0.58 µM
MES-SA cells [5]; [9]
  IC50: 3.87 ± 0.88 µM
